Source: patent US11434535B2, “Centromere/kinetochore protein genes for cancer diagnosis, prognosis and treatment selection” (The Regents of the University of California, priority 2014, dated 2022)
Entries after “also recorded” stand apart in the source; their conditions may differ.

Columns and labels:
[1] = system: gastric cancers; assay: K-M Plotter meta-analysis on chemo-sensitivity, gastric cancer; format: in vivo, human; conditions: gastric cancer patients
Description: (§1) To address small sample sizes in individual datasets when predicting drug sensitivity, we performed meta-analysis on chemo-sensitivity for several cancer types using K-M Plotter.
(§2) For meta-analysis using K-M Plotter for prognosis, we chose to use the top CES terile as high CES group, and the rest as low CES group. For meta-analysis on sensitivity to adjuvant therapies using K-M Plotter, we chose to use automatically computed best performing CES threshold for patient stratification in all dataset to increase detection sensitivity, even though tertile or median method gave similar results with statistical significance for many datasets. The K-M Plotter software only incorporates genes with probes present on both U133A+B to ensure comparability between datasets for meta-analysis, thus it excluded 7 CEN/KT genes including CENP-H, -W, -L, -K, -P, SPC24 and NUF2, of which 5 are also CES genes. Therefore, we used the 9 remaining CES genes, e.g., CENP-A, HJURP, MIS18B, CENP-N, CENP-M, CENP-U, ZWINT, NDC80, and SPC25, as a simplified version of the CES when using K-M Plotter.

[2] = system: CCLE (Cancer Cell Line Encyclopedia) cell lines; assay: CCLE cell lines: IC50 of Topo I inhibitors versus CES value; format: cell-based; conditions: CCLE cell lines binned into CES quartiles
Description: We mined the Cancer Cell Line Encyclopedia (CCLE) data, which contains information on both drug treatment and gene expression (Barretina et al., 2012). CCLE cell lines were binned into quartiles according to their CES values, we compared the top and bottom CES quartiles for the IC50 of the Topo I inhibitors and DNA damaging agents irinotecan and topotecan.
The Statistical Analysis of Microarrays (SAM) Excel add-on package (the website at www-stat.stanford.edu/˜tibs/SAM/) was used to identify differences between normal and tumor tissues in expression levels of CEN/KT genes (FDR≤0.05 and fold changes ≥2). Sample clustering was performed on the CEN/KT gene expression profiles using hierarchical clustering in Cluster 3.0 and Java Treeview 1.1.6r4 to group samples by centroid. For CCLE drug sensitivity, analysis was performed in Excel (Microsoft) and GraphPad. Kaplan-Meier survival curves for the CES system were generated for patients to evaluate differences in disease-free survival (DFS), stratified into groups of high (upper tertile), intermediate (middle tertile) and low (lower tertile) CES to evaluate differences in disease-free survival (DFS). […] Five-year survival was analyzed by chi-square test for significance.

[3] = system: ER+ breast cancer; assay: K-M Plotter meta-analysis on chemo-sensitivity, ER+ breast cancer relapse-free survival; conditions: ER+ breast cancer patients under the named therapy
Description: as §1, §2

[4] = system: late stage ovarian cancers; assay: K-M Plotter meta-analysis on chemo-sensitivity, ovarian cancer overall survival; format: in vivo, human; conditions: ovarian cancer patients, mostly late stage, under the named adjuvant therapy
Description: as §1, §2

SMILES: O=c1[nH]cc(F)c(=O)[nH]1 [5-FU, 5-fluorouracil]
- prediction power of CES for sensitivity [1]: no significant prediction power

SMILES: CCc1c2c(nc3ccc(OC(=O)N4CCC(N5CCCCC5)CC4)cc13)-c1cc3c(c(=O)n1C2)COC(=O)[C@]3(O)CC [irinotecan]
- average IC50, top CES quartile compared to bottom CES quartile [2]: significantly lower IC50s; also recorded: significantly more sensitive

SMILES: CC/C(=C(\c1ccccc1)c1ccc(OCCN(C)C)cc1)c1ccccc1 [tamoxifen]
- HR associated with high CES, relapse-free survival (RFS) [3]: 1.80

SMILES: CC[C@@]1(O)C(=O)OCc2c1cc1n(c2=O)Cc2cc3c(CN(C)C)c(O)ccc3nc2-1 [topotecan]
- average IC50, top CES quartile compared to bottom CES quartile [2]: significantly lower IC50s; also recorded: significantly more sensitive
- HR associated with high CES, overall survival [4]: .63
